Experimental data reported in patent US11717517B2, “LSD dose identification” (Universitätsspital Basel, priority 2020, dated 2023).
Read-outs that look alike come from different tables or passages of the source.

Columns and labels:
healthy subjects [1] = assay: Subjective drug effects (VAS, 5D-ASC, MEQ, AMRS), double-blind placebo-controlled cross-over study
Procedure: (§1) Study design: The study used a double-blind, placebo-controlled, cross-over design with six experimental test sessions to investigate the responses to 1) placebo 2) 25 μg, 3) 50 μg, 4) 100 μg, 5) 200 μg LSD, and 6) 200 μg LSD after ketanserin (40 mg). The washout periods between sessions were at least 10 days. The study was registered at ClinicalTrials.gov (NCT03321136).
Participants: Sixteen healthy subjects (eight men and eight women; mean age±SD: 29±6.4 years; range: 25-52 years). Participants who were younger than 25 years old were excluded from participating in the study. Additional exclusion criteria were age >65 years, pregnancy (urine pregnancy test at screening and before each test session), personal or family (first-degree relative) history of major psychiatric disorders (assessed by the Semi-structured Clinical Interview for Diagnostic and Statistical Manual of Mental Disorders, 4th edition, Axis I disorders by a trained psychiatrist), the use of medications that can interfere with the study medications (e.g. antidepressants, antipsychotics, sedatives), chronic or acute physical illness (abnormal physical exam, electrocardiogram, or hematological and chemical blood analyses), tobacco smoking (>10 cigarettes/day), lifetime prevalence of illicit drug use >10 times (except for Δ^9-tetrahydrocannabinol), illicit drug use within the last 2 months, and illicit drug use during the study (determined by urine drug tests).
Thus, subjects ingested 2 mL of LSD solution and/or placebo (96% ethanol) per session: 1) placebo/placebo, 2) 25 μg LSD/placebo, 3) 25 μg LSD/25 μg LSD, 4) 100 μg LSD/placebo, 5) 100 μg LSD/100 μg LSD, 6. 100 μg LSD/100 μg LSD). Ketanserin was obtained as the marketed drug (KETENSIN®, Janssen) and encapsulated with opaque capsules to ensure blinding. Placebo consisted of identical opaque capsules filled with mannitol. Thus, blinding to treatment was guaranteed by using a double-dummy method, with identical capsules and vials that were filled with mannitol and ethanol, respectively, as placebo. At the end of each session and at the end of the study, the participants were asked to retrospectively guess their treatment assignment.
(§2) Study procedures: The study included a screening, six 25 hour test sessions, and an end-of-study visit. The sessions were conducted in a calm standard hospital room. Only one research subject and one investigator were present during the test sessions. The test sessions began at 7:45 AM. The subjects then underwent baseline measurements. Ketanserin (40 mg) or placebo was administered at 8:00 AM. LSD or placebo was administered at 9:00 AM. The outcome measures were repeatedly assessed for 24 hours. A standardized lunch and dinner were served at 1:30 PM and 6:00 PM, respectively. The subjects were under constant supervision by an investigator until 1:00 AM. Thus, the subjects were never alone during the first 16 hours after drug administration, and the investigator was in a room next to the subject for up to 24 hours. The subjects were sent home the next day at 9:15 AM.
Subjective drug effects: Subjective effects were assessed repeatedly using visual analog scales (VASs) 1 hour before and 0, 0.5, 1, 1.5, 2, 2.5, 3, 4, 5, 6, 7, 8, 9, 10, 11, 12, 14, 16, and 24 hours after LSD administration. […] The VASs were presented as 100-mm horizontal lines (0-100%), marked from “not at all” on the left to “extremely” on the right. The VASs for “concentration”, and “perception of time” were bidirectional (±50%). Marked from “not at all” on the left (−50), to “normal” in the middle (0), to “extremely” on the right (+50) for concentration and “slowed” (−50) and “racing” (+50) for “perception of time”.

[2] = Stability of oral LSD solution (isomerization to iso-LSD); format: physicochemical
Procedure: Each dose of LSD was formulated as a solution to be administered orally in 1 ml of 96% ethanol according to GMP (batch BZ17-2; 25 μg and 100 μg vials) and stored free in argon-prefilled vials in the dark at 4° C. The exact analytically confirmed LSD contents (mean±SD) of the 25 μg and 100 μg formulation were […], respectively, after production. Stability of the formulation for longer than the study period was documented in an identically produced previous batch (batch BZ16). […] Vials that were stored at room temperature had higher iso-LSD contents of 0%, 3.1%, 3.4%, 6.7%, and 9.5% after 2, 4, 6, 12 and 24 months, respectively. The 100 μg LSD dose of that was used in the present study would correspond to a dose of approximately 125 μg of LSD tartrate including crystal water, which is the form of LSD that is more likely to be used when acquired illegally (i.e., in blotter form) for recreational use or was used in other recent studies (Bershad et al., 2019; Yanakieva et al., 2019).

healthy subjects [3] = assay: Autonomic and adverse effects (blood pressure, heart rate, body temperature, List of Complaints)
Procedure: as §1, §2
Autonomic, adverse, and endocrine effects: Blood pressure, heart rate, and tympanic body temperature were repeatedly measured 1 hour before and 0, 0.5, 1, 1.5, 2.5, 3, 4, 5, 6, 7, 8, 9, 10, 11, 12, 14, 16, and 24 hours after drug administration as previously described in detail (Hysek et al., 2010). […] This scale yields a total adverse effects score and reliably measures physical and general discomfort.
Data analysis: Peak (Emax and/or Emin) or peak change from baseline (ΔEmax) values were determined for repeated measures. The values were then analyzed using repeated-measures analysis of variance (ANOVA), with drug as within-subjects factor, followed by Tukey post hoc comparisons using Statistica 12 software (StatSoft, Tulsa, Okla., USA). The criterion for significance was p<0.05.

[4] = Plasma drug concentrations and pharmacokinetic-pharmacodynamic modeling; format: in vivo, human
Procedure: Plasma drug concentrations: Blood was collected into lithium heparin tubes 1 hour before and 0, 0.5, 1, 2, 3, 4, 6, 8, 10, 12, 14, 16, and 24 hours after LSD administration. The blood samples were immediately centrifuged, and the plasma was subsequently stored at −80° C. until analysis. Plasma concentrations of LSD and O-H-LSD were determined using a validated ultra-high-performance liquid chromatography tandem mass spectrometry method as described previously in detail (Holze et al., 2019).
Pharmacokinetic analyses and pharmacokinetic-pharmacodynamic modeling: Pharmacokinetic parameters were estimated using a one-compartment model with first-order input, first-order elimination, and no lag time in Phoenix WinNonlin 6.4 (Certara, Princeton, N.J., USA) as described previously in detail (Holze et al., 2019).

[5] = tested on: brain-derived neurotrophic factor (BDNF)
Procedure: Plasma BDNF levels were measured at baseline and 6, 12, and 24 hours after drug administration using the Biosensis Mature BDNF Rapid ELISA Kit (Thebarton, Australia) (Akimoto et al., 2019).

[6] = after 200 μg dose as two 100 μg capsules; Steuer et al., 2017; cited from earlier work
healthy humans = conditions: cited from earlier work
[7] = Plasma exposure to LSD and iso-LSD after LSD capsules in previous studies; conditions: assuming similar bioavailability

## O=C(c1ccc(F)cc1)C1CCN(CCn2c(=O)[nH]c3ccccc3c2=O)CC1 [Ketanserin]
Healthy subjects [1]; ketanserin 40 mg given prior to 200 μg LSD
  effect of ketanserin on LSD effects at the 5-HT2a receptor: blocks LSD side effects

## CCN(CC)C(=O)[C@@H]1C=C2c3cccc4[nH]cc(c34)C[C@H]2N(C)C1 [LSD, D-lysergic acid diethylamide base]
[2]; solution in 96% ethanol, batch BZ16, 4° C., 4 months
  iso-LSD content (% of initial LSD content): 0.1%
[2]; solution in 96% ethanol, batch BZ16, 4° C., 6 months
  iso-LSD content (% of initial LSD content): 0.1%
[2]; solution in 96% ethanol, batch BZ16, 4° C., 12 months
  iso-LSD content (% of initial LSD content): 1.3%
[2]; solution in 96% ethanol, batch BZ16, 4° C., 18 months
  iso-LSD content (% of initial LSD content): 3.2%
[2]; solution in 96% ethanol, batch BZ16, 4° C., 24 months
  iso-LSD content (% of initial LSD content): 3.6%
[2]; solution stored at 4° C.
  other decomposition products: No other decomposition products were present
[2]; vials at room temperature, 2 months
  iso-LSD content (% of initial LSD content): 0%
[2]; vials at room temperature, 4 months
  iso-LSD content (% of initial LSD content): 3.1%
[2]; vials at room temperature, 6 months
  iso-LSD content (% of initial LSD content): 3.4%
[2]; vials at room temperature, 12 months
  iso-LSD content (% of initial LSD content): 6.7%
[2]; vials at room temperature, 24 months
  iso-LSD content (% of initial LSD content): 9.5%
Healthy subjects [1]; 25 μg oral, P<0.05, 16 subjects
  VAS any drug effect compared with placebo: significant
Healthy subjects [1]; 25, 50, 100, 200 μg oral
  VAS good drug effect, dose dependence: dose-dependent good drug effects up to the 100 μg dose
Healthy subjects [1]; 100 and 200 μg, P<0.01 for both
  anxiety on the 5D-ASC and AMRS: only the 200 μg but not the 100 μg dose of LSD induced significant anxiety
Healthy subjects [1]; P<0.05
  anxious ego-dissolution on the 5D-ASC, 200 μg versus 100 μg: greater
  ego-dissolution on the VAS, 200 μg versus 100 μg: significantly greater
  subjectively negative nadir effects, 200 μg versus 100 μg: greater
Healthy subjects [1]; at the 100 μg dose, no significant differences between 100 and 200 μg
  most scales (particularly positive subjective effects) with increasing doses: ceiling effect was reached
Healthy subjects [3]; 25-200 μg
  body temperature: no effect
Healthy subjects [3]; 100 and 200 μg
  heart rate: moderately but significantly increased
  total acute (0-12 hours) adverse effects score on the LC compared with placebo and all other conditions: increased
Healthy subjects [3]; all conditions
  severe adverse events: No severe adverse events were observed
Healthy subjects [3]; doses of 50 μg or higher
  blood pressure: moderately but significantly increased
[4]; 25, 50, 100, 200 μg oral
  plasma concentrations of LSD, dose proportionality: increased proportionally with increasing doses
[4]; in vivo
  VAS bad drug effect, 200 μg compared with 100 μg: higher bad drug effects
[4]; with increasing doses
  effect duration: longer effect durations
  time to offset of the LSD response: increased
  time to onset of the LSD response: decreased
[5]; 200 μg LSD
  BDNF plasma concentration compared with placebo: significantly increased
  time of peak BDNF plasma concentration: 6 h
[5]; lower doses of LSD (25, 50, 100 μg)
  plasma BDNF: non-significant increases
[6]
  plasma AUC24: 21 ng·h/mL
Healthy humans; 0.1 mg LSD, 3 of 24 subjects (Dolder et al., 2017)
  subjects with bad drug effects (50% or more on a 0-100% scale at any time point): 12.5%
Healthy humans; 0.1 mg LSD, 7 of 24 subjects (Holze et al., 2019)
  subjects with transient bad drug effects: 29%
Healthy humans; 0.2 mg LSD, 9 of 16 subjects (Dolder et al., 2017)
  subjects with bad drug effects (50% or more on a 0-100% scale at any time point): 56%
Healthy humans; 0.2 mg LSD, sixteen healthy humans (Schmid et al., 2015)
  subjects with marked anxiety: two
Healthy humans; previous studies (Carhart-Harris et al., 2016a; Liechti, 2017)
  clinical response to 75 μg intravenous LSD versus oral 100 μg dose: not significantly different
[7]; 100 μg capsule dose
  AUC∞ as % of value expected from confirmed 96 μg LSD doses: 61%
[7]; 200 μg capsule dose
  AUC∞ as % of value expected from confirmed 96 μg LSD doses: 76%

## CCN(CC)C(=O)[C@H]1C=C2c3cccc4[nH]cc(c34)C[C@H]2N(C)C1 [iso-LSD]
[6]
  plasma AUC24: 9.2 ng·h/mL
